Experimental data as given in paper PMC8512764, “New 4-Aminoproline-Based Small Molecule Cyclopeptidomimetics as Potential Modulators of α4β1 Integrin” (Molecules, 2021).
Read-outs that look alike come from different tables or passages of the source. *1 amine or outer side, *2 acyl side, *3 side chain or, on linkers, in order; H or OH if unused. Where a SMILES comes first, the peptide text is derived from it. Bridges are numbered along the chain shown (N, C = ends). [ ]: non-standard residue; d: D form. The star is where a group is joined. ξ: configuration not given here. ξPro(4ξ-NH2) = O=C(C1CC(N[*:3])CN1[*:1])[*:2]; X1 = O=C(Cc1ccc(N[*:1])cc1)[*:2]; NH(2-Me-phenyl) = Cc1ccccc1N*; CO = O=C([*:1])[*:2]

Tests used:
α4β1 integrin = molecular target: T1, α4β1 integrin (Homo sapiens, UniProt P05556+P13612); experiment: Jurkat cell adhesion assay on VCAM-1-coated wells; type: cell-based; conditions: Jurkat cell adhesion to VCAM-1 (2 μg/mL); means ± SD, n = 3; tested 0.1 nM to 100 μM; read-out: EC50/IC50 (IC50 for compounds reducing cell adhesion)
T1 construct: Jurkat cells endogenously express α4β1 integrin; host or cells: Jurkat E6.1 cells
Description: To investigate the ability of the newly synthesized cyclopeptidomimetics 12–18 to recognize and bind α4β1 integrin, cell adhesion assays were performed on VCAM-1. The compounds were evaluated for their ability to interfere with α4β1 integrin-mediated cell adhesion by using Jurkat cells, which are known to constitutively express this integrin [46, 48, 49, 50, 51].
Jurkat E6.1 cells were purchased from American Type Culture Collection (ATCC, Rockville, MD, USA) and were routinely cultured in RPMI-1640 (LifeTechnologies, Milan, Italy) supplemented with 10% FBS (fetal bovine serum, Life Technologies) and 2 mM glutamine. Cells were kept at 37 °C under 5% CO2 humidified atmosphere. Jurkat cells are a widely used cell model to study potential agonist or antagonist ligands able to modulate integrin-mediated cell adhesion. Jurkat cells endogenously express α4β1 integrin [13].
The assays were performed as previously described. In brief, black 96 well plates were coated with VCAM-1 (2 μg/mL) overnight at 4 °C; then, non-specific hydrophobic binding sites were blocked with 1% BSA (bovine serum albumin, Sigma-Aldrich) in HBSS (Life Technologies) for 30 min at 37 °C. Jurkat cells were labelled with CellTracker green CMFDA (12.5 μM, Life Technolgies) and pre-incubated with various concentration (10^−4–10^−10 M) of each new cyclopeptidomimetic or with the vehicle (DMSO) for 30 min at 37 °C. Afterwards, Jurkat cells were plated on VCAM-1-coated wells and incubated for 30 min at 37 °C. Then, wells were washed three times with 1% BSA in HBSS and Jurkat cells were lysed with 0.5% Triton X-100 in PBS for 30 min at 4 °C. Green fluorescence (Ex485 nm/Em 535 nm) was measured in an EnSpire Multimode Plate Reader (PerkinElmer, Waltham, MA, USA). Experiments were performed in quadruplicate and repeated at least three times. The number of adherent cells was determined by comparison with a standard curve made with a known concentration of labelled Jurkat cells. Data analysis and IC50/EC50 values were calculated using GraphPad Prism 6.0 (GraphPad Software, San Diego, CA, USA).
The number of adherent cells was determined as described above.

[1] = amide bond, HATU/HOAt/collidine, DCM/DMF 15:1, 25.0 °C
[2] = head-to-tail lactamisation (amide bond) of side-chain-protected linear peptides; HATU (3 equiv)/HOAt (3 equiv)/2,4,6-collidine (3 equiv); linear peptide + collidine added dropwise to HATU/HOAt, 5 h, argon; conditions: the molecule shown is the open-chain precursor, DCM/DMF 15:1, 25.0 °C

T1 sequence (P13612 34-1032): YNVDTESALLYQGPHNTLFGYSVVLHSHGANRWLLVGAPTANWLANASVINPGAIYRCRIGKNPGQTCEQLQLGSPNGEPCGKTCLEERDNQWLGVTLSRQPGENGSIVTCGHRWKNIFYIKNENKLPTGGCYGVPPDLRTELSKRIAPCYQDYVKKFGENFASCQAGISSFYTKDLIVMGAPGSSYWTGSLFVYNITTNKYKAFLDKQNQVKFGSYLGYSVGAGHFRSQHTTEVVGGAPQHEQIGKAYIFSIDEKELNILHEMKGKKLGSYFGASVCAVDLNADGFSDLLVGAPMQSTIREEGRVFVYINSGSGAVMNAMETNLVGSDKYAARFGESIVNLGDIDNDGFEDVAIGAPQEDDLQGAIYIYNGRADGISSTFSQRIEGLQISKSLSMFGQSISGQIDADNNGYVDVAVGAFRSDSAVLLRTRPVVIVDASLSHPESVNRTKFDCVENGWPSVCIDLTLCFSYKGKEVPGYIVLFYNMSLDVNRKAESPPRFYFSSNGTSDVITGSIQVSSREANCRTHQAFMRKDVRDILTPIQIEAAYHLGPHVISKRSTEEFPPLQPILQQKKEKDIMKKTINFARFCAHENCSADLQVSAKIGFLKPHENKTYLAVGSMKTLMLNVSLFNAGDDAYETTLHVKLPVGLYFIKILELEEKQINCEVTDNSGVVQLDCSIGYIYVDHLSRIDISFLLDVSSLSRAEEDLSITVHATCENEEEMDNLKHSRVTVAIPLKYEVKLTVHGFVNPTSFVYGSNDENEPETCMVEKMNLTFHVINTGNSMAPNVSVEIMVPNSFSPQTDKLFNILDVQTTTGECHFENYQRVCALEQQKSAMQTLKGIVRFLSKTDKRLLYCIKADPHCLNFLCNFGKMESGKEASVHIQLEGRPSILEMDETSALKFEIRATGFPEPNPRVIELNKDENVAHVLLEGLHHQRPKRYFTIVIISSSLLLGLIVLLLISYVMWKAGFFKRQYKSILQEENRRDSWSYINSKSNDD
T1 sequence (P05556 21-798): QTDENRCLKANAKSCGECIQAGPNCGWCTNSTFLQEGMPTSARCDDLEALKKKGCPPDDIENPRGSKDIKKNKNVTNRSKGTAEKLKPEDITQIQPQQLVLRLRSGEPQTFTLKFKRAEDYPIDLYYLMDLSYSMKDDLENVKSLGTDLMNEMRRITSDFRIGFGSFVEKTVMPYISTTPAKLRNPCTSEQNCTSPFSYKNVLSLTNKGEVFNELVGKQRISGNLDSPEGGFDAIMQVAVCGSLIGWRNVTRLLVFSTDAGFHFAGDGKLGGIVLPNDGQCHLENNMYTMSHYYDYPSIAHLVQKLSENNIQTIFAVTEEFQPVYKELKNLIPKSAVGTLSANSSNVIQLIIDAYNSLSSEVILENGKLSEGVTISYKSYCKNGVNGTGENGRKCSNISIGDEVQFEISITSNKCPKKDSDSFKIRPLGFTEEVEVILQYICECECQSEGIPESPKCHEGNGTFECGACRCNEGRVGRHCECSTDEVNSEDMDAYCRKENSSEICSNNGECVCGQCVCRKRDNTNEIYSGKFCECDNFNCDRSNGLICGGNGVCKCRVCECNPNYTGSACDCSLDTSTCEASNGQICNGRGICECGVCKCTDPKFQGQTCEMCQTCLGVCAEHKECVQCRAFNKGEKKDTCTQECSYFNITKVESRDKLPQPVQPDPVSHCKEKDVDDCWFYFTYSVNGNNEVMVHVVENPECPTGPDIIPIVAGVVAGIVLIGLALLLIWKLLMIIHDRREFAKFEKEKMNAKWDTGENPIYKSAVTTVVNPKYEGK

In the case of Cc1ccccc1NC(=O)Nc1ccc(CC(=O)N2CC3CC2C(=O)NC(CC(C)C)C(=O)NC(CC(=O)O)C(=O)NC(C(C)C)C(=O)N3)cc1 (stereo not drawn) [Compound 14, c[(MPUPA)Amp-Leu-Asp-Val]] ({NH(2-Me-phenyl)-CO}-[X1][ξPro(4ξ-NH2)]LDV; lactam 2-C; configuration not given here), the IC50 (α4β1 integrin) is reported as over 100 µM.
For Cc1ccccc1NC(=O)Nc1ccc(CC(=O)N2C[C@@H]3C[C@H]2C(=O)N[C@@H](CCCNC(=N)NS(=O)(=O)c2c(C)c(C)c4c(c2C)CCC(C)(C)O4)C(=O)NCC(=O)N[C@@H](CC(=O)OC(C)(C)C)C(=O)N3)cc1 [H-Asp(tBu)-Amp(MPUPA)-Arg(Pmc)-Gly-OH], the ring closure, isolated yield ([1]; from H-Asp(tBu)-Amp(MPUPA)-Arg(Pmc)-Gly-OH, 14-membered ring, 0.52 mM) was 43%.
Compound Cc1ccccc1NC(=O)Nc1ccc(CC(=O)N2C[C@@H](NC(=O)[C@@H](N)CC(=O)OC(C)(C)C)C[C@H]2C(=O)N[C@@H](CCCNC(=N)NS(=O)(=O)c2c(C)c(C)c3c(c2C)CCC(C)(C)O3)C(=O)NCC(=O)O)cc1 [H-Asp(tBu)-Amp(MPUPA)-Arg(Pmc)-Gly-OH] has a ring closure, isolated yield ([2]; 14-membered ring) of 43%.
With Cc1ccccc1NC(=O)Nc1ccc(CC(=O)N2CC3CC2C(=O)NC(CCCNC(=N)N)C(=O)NCC(=O)NC(CC(=O)O)C(=O)N3)cc1 (stereo not drawn) [Compound 18, c[(MPUPA)Amp-Arg-Gly-Asp]] ({NH(2-Me-phenyl)-CO}-[X1][ξPro(4ξ-NH2)]RGD; lactam 2-C; configuration not given here) the IC50 (α4β1 integrin) was over 100 µM.
Compound Cc1ccccc1NC(=O)Nc1ccc(CC(=O)N2CC3CC2C(=O)NC(CC(C)C)C(=O)NC(CC(=O)O)C(=O)NC(C(C)C)C(=O)NCC(=O)N3)cc1 (stereo not drawn) [Compound 12, c[(MPUPA)Amp-Leu-Asp-Val-Gly]] ({NH(2-Me-phenyl)-CO}-[X1][ξPro(4ξ-NH2)]LDVG; lactam 2-C; configuration not given here) has an IC50 (α4β1 integrin) of over 100 µM.
In the case of Cc1ccccc1NC(=O)Nc1ccc(CC(=O)N2C[C@@H](NC(=O)[C@@H](N)CC(C)C)C[C@H]2C(=O)N[C@H](C(=O)N[C@@H](CC(=O)OC(C)(C)C)C(=O)O)C(C)C)cc1 [H-Leu-Amp(MPUPA)-Val-Asp(tBu)-OH], the ring closure, isolated yield ([2]; 14-membered ring) is reported as 73%.
Cc1ccccc1NC(=O)Nc1ccc(CC(=O)N2C[C@@H](NC(=O)[C@@H](N)C(C)C)C[C@H]2C(=O)N[C@@H](CC(C)C)C(=O)N[C@@H](CC(=O)OC(C)(C)C)C(=O)O)cc1 [H-Val-Amp(MPUPA)-Leu-Asp(tBu)-OH] gave a ring closure, isolated yield ([2]; 14-membered ring) of 69%.
Compound Cc1ccccc1NC(=O)Nc1ccc(CC(=O)N2C[C@@H]3C[C@H]2C(=O)N[C@@H](CC(C)C)C(=O)N[C@@H](CCC(=O)OC(C)(C)C)C(=O)N[C@@H](C(C)C)C(=O)N3)cc1 [H-Val-Amp(MPUPA)-Leu-Glu(tBu)-OH] has a ring closure, isolated yield ([1]; from H-Val-Amp(MPUPA)-Leu-Glu(tBu)-OH, 14-membered ring, 0.76 mM) of 65%.
With Cc1ccccc1NC(=O)Nc1ccc(CC(=O)N2CC3CC2C(=O)NC(CC(C)C)C(=O)NC(CCC(=O)O)C(=O)NC(C(C)C)C(=O)NCC(=O)N3)cc1 (stereo not drawn) [Compound 13, c[(MPUPA)Amp-Leu-Glu-Val-Gly]] ({NH(2-Me-phenyl)-CO}-[X1][ξPro(4ξ-NH2)]LEVG; lactam 2-C; configuration not given here) the IC50 (α4β1 integrin) was over 100 µM.
Compound Cc1ccccc1NC(=O)Nc1ccc(CC(=O)N2C[C@@H](NC(=O)CNC(=O)[C@@H](N)C(C)C)C[C@H]2C(=O)N[C@@H](CC(C)C)C(=O)N[C@@H](CCC(=O)OC(C)(C)C)C(=O)O)cc1 [H-Val-Gly-Amp(MPUPA)-Leu-Glu(tBu)-OH] has a ring closure, isolated yield ([2]; 17-membered ring) of 78%.
In the case of Cc1ccccc1NC(=O)Nc1ccc(CC(=O)N2CC3CC2C(=O)NC(C(C)C)C(=O)NC(CCC(=O)O)C(=O)NC(CC(C)C)C(=O)N3)cc1 (stereo not drawn) [Compound 17, c[(MPUPA)Amp-Val-Glu-Leu]] ({NH(2-Me-phenyl)-CO}-[X1][ξPro(4ξ-NH2)]VEL; lactam 2-C; configuration not given here), the IC50 (α4β1 integrin) is reported as over 100 µM.
Work on Cc1ccccc1NC(=O)Nc1ccc(CC(=O)N2C[C@@H]3C[C@H]2C(=O)N[C@@H](C(C)C)C(=O)N[C@@H](CC(=O)OC(C)(C)C)C(=O)N[C@@H](CC(C)C)C(=O)N3)cc1 [H-Leu-Amp(MPUPA)-Val-Asp(tBu)-OH] yielded a ring closure, isolated yield ([1]; from H-Leu-Amp(MPUPA)-Val-Asp(tBu)-OH, 14-membered ring, 0.78 mM) of 73%.
For Cc1ccccc1NC(=O)Nc1ccc(CC(=O)N2C[C@@H](NC(=O)CNC(=O)[C@@H](N)C(C)C)C[C@H]2C(=O)N[C@@H](CC(C)C)C(=O)N[C@@H](CC(=O)OC(C)(C)C)C(=O)O)cc1 [H-Val-Gly-Amp(MPUPA)-Leu-Asp(tBu)-OH], the ring closure, isolated yield ([2]; 17-membered ring) was 88%.
With Cc1ccccc1NC(=O)Nc1ccc(CC(=O)N2C[C@@H]3C[C@H]2C(=O)N[C@@H](CC(C)C)C(=O)N[C@@H](CC(=O)OC(C)(C)C)C(=O)N[C@@H](C(C)C)C(=O)N3)cc1 [H-Val-Amp(MPUPA)-Leu-Asp(tBu)-OH] the ring closure, isolated yield ([1]; from H-Val-Amp(MPUPA)-Leu-Asp(tBu)-OH, 14-membered ring, 0.53 mM) was 69%.
With Cc1ccccc1NC(=O)Nc1ccc(CC(=O)N2C[C@@H](NC(=O)[C@@H](N)C(C)C)C[C@H]2C(=O)N[C@@H](CC(C)C)C(=O)N[C@@H](CCC(=O)OC(C)(C)C)C(=O)O)cc1 [H-Val-Amp(MPUPA)-Leu-Glu(tBu)-OH] the ring closure, isolated yield ([2]; 14-membered ring) was 65%.
With Cc1ccccc1NC(=O)Nc1ccc(CC(=O)N2CC3CC2C(=O)NC(CC(C)C)C(=O)NC(CCC(=O)O)C(=O)NC(C(C)C)C(=O)N3)cc1 (stereo not drawn) [Compound 15, c[(MPUPA)Amp-Leu-Glu-Val]] ({NH(2-Me-phenyl)-CO}-[X1][ξPro(4ξ-NH2)]LEV; lactam 2-C; configuration not given here) the IC50 (α4β1 integrin) was over 100 µM.
Compound Cc1ccccc1NC(=O)Nc1ccc(CC(=O)N2C[C@@H]3C[C@H]2C(=O)N[C@@H](C(C)C)C(=O)N[C@@H](CCC(=O)OC(C)(C)C)C(=O)N[C@@H](CC(C)C)C(=O)N3)cc1 [H-Leu-Amp(MPUPA)-Val-Glu(tBu)-OH] has a ring closure, isolated yield ([1]; from H-Leu-Amp(MPUPA)-Val-Glu(tBu)-OH, 14-membered ring, 0.74 mM) of 73%.
Work on Cc1ccccc1NC(=O)Nc1ccc(CC(=O)N2C[C@@H](NC(=O)[C@@H](N)CC(C)C)C[C@H]2C(=O)N[C@H](C(=O)N[C@@H](CCC(=O)OC(C)(C)C)C(=O)O)C(C)C)cc1 [H-Leu-Amp(MPUPA)-Val-Glu(tBu)-OH] yielded a ring closure, isolated yield ([2]; 14-membered ring) of 73%.
Cc1ccccc1NC(=O)Nc1ccc(CC(=O)N2C[C@@H]3C[C@H]2C(=O)N[C@@H](CC(C)C)C(=O)N[C@@H](CC(=O)OC(C)(C)C)C(=O)N[C@@H](C(C)C)C(=O)NCC(=O)N3)cc1 [H-Val-Gly-Amp(MPUPA)-Leu-Asp(tBu)-OH] showed a ring closure, isolated yield ([1]; from H-Val-Gly-Amp(MPUPA)-Leu-Asp(tBu)-OH, 17-membered ring, 0.47 mM) of 88%.
Work on Cc1ccccc1NC(=O)Nc1ccc(CC(=O)N2C[C@@H]3C[C@H]2C(=O)N[C@@H](CC(C)C)C(=O)N[C@@H](CCC(=O)OC(C)(C)C)C(=O)N[C@@H](C(C)C)C(=O)NCC(=O)N3)cc1 [H-Val-Gly-Amp(MPUPA)-Leu-Glu(tBu)-OH] yielded a ring closure, isolated yield ([1]; from H-Val-Gly-Amp(MPUPA)-Leu-Glu(tBu)-OH, 17-membered ring, 0.48 mM) of 78%.
